Calls of active or inactive are those of the source. The calls are words filed in the database; no cut-off is given here.
How the values were obtained:
[1] = target: Acetylcholinesterase (Electrophorus electricus, UniProt O42275)
Description: Inhibition of electric eel AChE by Ellman's method

[2] = target: Cholinesterase (Equus caballus, UniProt P81908)
Description: Inhibition of equine serum BuChE by Ellman's method

[3] = target: Cholinesterase (Equus caballus) (UniProt P81908); assay: Potency index,ratio of isatin IC50 to test compound IC50 for inhibition of equine serum BuChE
[4] = target: Cholinesterase (Equus caballus) (UniProt P81908); assay: Mixed reversible inhibition of equine serum BuChE assessed as decrease in Vmax and increase in Km at 1.56 to 6.25 uM by Lineweaver-burk plot analysis; conditions: dose 1.56-6.25 µM
[5] = target: Cholinesterase (Equus caballus) (UniProt P81908); assay: Mixed reversible inhibition of equine serum BuChE assessed as decrease in Vmax and increase in Km at 3.13 to 12.5 uM by Lineweaver-burk plot analysis; conditions: dose 3.13-12.5 µM

Sequence of Cholinesterase (Equus caballus) (P81908 whole entry): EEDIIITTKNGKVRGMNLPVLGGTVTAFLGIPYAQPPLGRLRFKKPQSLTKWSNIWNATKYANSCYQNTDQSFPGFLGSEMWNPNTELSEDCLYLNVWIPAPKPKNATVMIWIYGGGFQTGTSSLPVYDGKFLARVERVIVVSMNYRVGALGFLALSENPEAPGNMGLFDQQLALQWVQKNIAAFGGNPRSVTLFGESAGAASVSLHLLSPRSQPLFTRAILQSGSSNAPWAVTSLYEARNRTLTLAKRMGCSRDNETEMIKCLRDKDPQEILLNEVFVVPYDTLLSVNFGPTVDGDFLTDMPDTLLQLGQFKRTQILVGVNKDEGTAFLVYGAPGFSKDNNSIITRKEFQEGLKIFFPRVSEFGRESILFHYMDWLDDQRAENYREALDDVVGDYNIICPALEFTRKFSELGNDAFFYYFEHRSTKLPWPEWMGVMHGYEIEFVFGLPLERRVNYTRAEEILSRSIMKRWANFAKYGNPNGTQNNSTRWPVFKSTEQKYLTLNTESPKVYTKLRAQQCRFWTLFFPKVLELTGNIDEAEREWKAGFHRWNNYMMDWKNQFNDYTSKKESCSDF
Sequence of Cholinesterase (P81908 whole entry): as above
Sequence of Acetylcholinesterase (O42275 whole entry): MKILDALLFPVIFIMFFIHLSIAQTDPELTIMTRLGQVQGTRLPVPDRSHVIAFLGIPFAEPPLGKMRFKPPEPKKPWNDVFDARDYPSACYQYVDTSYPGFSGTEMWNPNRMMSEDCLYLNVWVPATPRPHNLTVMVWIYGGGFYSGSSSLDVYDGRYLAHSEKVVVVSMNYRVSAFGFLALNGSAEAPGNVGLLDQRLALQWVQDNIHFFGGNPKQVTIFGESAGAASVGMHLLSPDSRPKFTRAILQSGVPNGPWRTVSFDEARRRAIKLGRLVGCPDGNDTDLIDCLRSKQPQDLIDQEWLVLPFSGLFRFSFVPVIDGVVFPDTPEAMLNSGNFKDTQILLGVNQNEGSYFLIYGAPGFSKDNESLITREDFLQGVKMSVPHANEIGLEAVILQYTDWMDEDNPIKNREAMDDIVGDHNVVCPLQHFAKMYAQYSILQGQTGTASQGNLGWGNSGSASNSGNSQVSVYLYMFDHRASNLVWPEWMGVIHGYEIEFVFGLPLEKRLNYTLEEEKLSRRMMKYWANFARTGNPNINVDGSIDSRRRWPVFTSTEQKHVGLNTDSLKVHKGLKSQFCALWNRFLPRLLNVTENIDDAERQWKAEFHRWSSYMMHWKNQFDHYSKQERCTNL

SMILES	IC50 [1]	IC50 [2]	Ratio IC50 [3]	inhibition [4]	inhibition [5]
O=C1N(CCCCN2C(=O)C(O)(c3c[nH]c4ccccc34)c3ccccc32)c2ccccc2C1(O)c1c[nH]c2ccccc12 (centres undefined)	> 50 µM	11.8 µM	–	–	–
O=C1C(=O)N(CCN2C(=O)C(=O)c3ccccc32)c2ccccc21	> 125 µM	> 125 µM	–	–	–
O=C1C(=O)N(CCCCCCCN2C(=O)C(=O)c3ccccc32)c2ccccc21	> 50 µM	3.2 µM	300	Active	–
O=C1C(=O)N(CCCCCCCCN2C(=O)C(=O)c3ccccc32)c2ccccc21	> 50 µM	> 50 µM	–	–	–
O=C1C(=O)N(CCCN2C(=O)C(=O)c3ccccc32)c2ccccc21	> 125 µM	> 125 µM	–	–	–
O=C1C(=O)N(CCCCCCN2C(=O)C(=O)c3ccccc32)c2ccccc21	> 50 µM	> 50 µM	–	–	–
O=C1C(=O)N(CCCCN2C(=O)C(=O)c3ccccc32)c2ccccc21	> 125 µM	34.7 µM	–	–	–
O=C1Nc2ccccc2C1(O)c1c[nH]c2ccccc12 (centres undefined)	1300 µM	357 µM	–	–	–
O=C1N(CCCCCCN2C(=O)C(O)(c3c[nH]c4ccccc34)c3ccccc32)c2ccccc2C1(O)c1c[nH]c2ccccc12 (centres undefined)	> 50 µM	14 µM	–	–	–
O=C1N(CCCCCCCN2C(=O)C(O)(c3c[nH]c4ccccc34)c3ccccc32)c2ccccc2C1(O)c1c[nH]c2ccccc12 (centres undefined)	> 50 µM	13.2 µM	–	–	–
O=C1Nc2ccccc2C1=O [ISATIN]	> 1000 µM	> 1000 µM	–	–	–
O=C1N(CCCN2C(=O)C(O)(c3c[nH]c4ccccc34)c3ccccc32)c2ccccc2C1(O)c1c[nH]c2ccccc12 (centres undefined)	> 50 µM	6.47 µM	–	–	–
O=C1N(CCCCCCCCN2C(=O)C(O)(c3c[nH]c4ccccc34)c3ccccc32)c2ccccc2C1(O)c1c[nH]c2ccccc12 (centres undefined)	> 50 µM	> 25 µM	–	–	–
O=C1C(=O)N(CCCCCN2C(=O)C(=O)c3ccccc32)c2ccccc21	> 50 µM	7.56 µM	–	–	–
O=C1N(CCCCCN2C(=O)C(O)(c3c[nH]c4ccccc34)c3ccccc32)c2ccccc2C1(O)c1c[nH]c2ccccc12 (centres undefined)	> 50 µM	–	–	–	Active
O=C1N(CCN2C(=O)C(O)(c3c[nH]c4ccccc34)c3ccccc32)c2ccccc2C1(O)c1c[nH]c2ccccc12 (centres undefined)	> 50 µM	> 50 µM	–	–	–

— ChEMBL document CHEMBL5150026, “Selective butyrylcholinesterase inhibition by isatin dimers and 3-indolyl-3-hydroxy-2-oxindole dimers” (Bioorg Med Chem Lett, 2022)
